This is an account of results in article PMC1373645, “Lactate production yield from engineered yeasts is dependent from the host background, the lactate dehydrogenase source and the lactate export” (Microbial Cell Factories, 2006).

In this experiment the target is T1, bovine Ldh-A (BtLDH) (Bos taurus, UniProt P19858).
T1 construct: gene LDHA; full length, untagged, expressed in S. cerevisiae GRF18U; crude cell extract; homotetramer
The experiment can be described thus: LDH activity of crude yeast extract with added lactate (Sigma kit DG1340-UV). The experiment is classed as biochemical. Particulars: read-out: % inhibition at 10 g/l.

As to `C[C@H](O)C(=O)O` [lactate], the inhibition at 10000 µg/mL is ~40%.
